Broadly, the GI50 is the concentration that inhibits growth by half. As usually defined, the TGI is the concentration giving total growth inhibition. A high value points to lower sensitivity of the cells.

SMILES strings stand for the structures.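 1) Cells in 96-well plates. 2) Compound, 48 h, 5 concentrations. 3) Linear interpolation between surrounding doses. 4) Unreached endpoint = highest concentration. GI50 is the concentration that inhibits growth by half. TGI marks complete inhibition of growth.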

Some test systems named below: DU-145 prostate; MDA-N; DLD-1 colon; HOP-18 NSCLC; LXFL 529 NSCLC; RXF-631 renal.
Experiment in all cases: DTP human tumour cell line panel, 48 h

Consider `CC(C)(C)N1CC(OC(N)=O)C1`, for which, in the assay with DU-145 prostate, the GI50 is above 100 µM and the TGI is above 100 µM.

Turning to `CC(=O)NNC(=S)/N=C/c1c(O)cc(C)oc1=O`, the TGI with DU-145 prostate and in the assay with MDA-N was above 100 µM in each case.

For the molecule `CC1Cc2c(N)nc(N3CCOCC3)nc2NC1=O` (centres undefined), the concentration for total growth inhibition (TGI) in the assay on DLD-1 colon and with HOP-18 NSCLC was above 100 µM in each case.

As for `CC(=O)Nc1ccc2oc(=O)c3ccccc3c2c1`, the TGI with DU-145 prostate and in the assay on MDA-N was above 100 µM throughout.

`COc1cc2ccnc3c2c(c1OC)CC1CC(O)C(OC)CC31` (centres undefined): the TGI in the assay with DLD-1 colon, in the assay with HOP-18 NSCLC and in the assay with LXFL 529 NSCLC was above 100 µM each time.

Regarding `COc1ccc(-c2nc(N)c3ncn(C4OC(CO)C(O)C4O)c3n2)cc1` (centres undefined), the TGI in the assay on DU-145 prostate and in the assay on MDA-N was above 100 µM in each case.

Consider `C[C@]12CC(C#N)C(=O)C(O)=C1CC[C@@H]1C2CC[C@@]2(C)C1CC[C@@H]2O` (some centres undefined), for which the TGI with DLD-1 colon and in the assay on LXFL 529 NSCLC was above 100 µM throughout.

Regarding `C[C@@H](NC1CCC[C@@H]1O)c1ccccc1` (some centres undefined), the TGI with DLD-1 colon, with HOP-18 NSCLC and with LXFL 529 NSCLC was above 100 µM in each case.

`Cc1cccc2c1O/C(=C\c1ncc([N+](=O)[O-])n1C)C2=O`: in the assay with DU-145 prostate, the GI50 was 0.238 µM and the concentration for total growth inhibition (TGI) was determined as 0.762 µM.

Take `O=C(O)CCSC(=O)Nc1cccc([N+](=O)[O-])c1`: the TGI in the assay with DLD-1 colon and in the assay with LXFL 529 NSCLC was above 100 µM throughout.

For `COC1OC(CBr)C(OC(c2ccccc2)(c2ccccc2)c2ccccc2)C(OC(c2ccccc2)(c2ccccc2)c2ccccc2)C1OC(c1ccccc1)(c1ccccc1)c1ccccc1` (centres undefined), the TGI with DU-145 prostate and in the assay on MDA-N was above 100 µM in each case.

On to `COc1cc(C)[nH]c(=O)c1CN1CCc2c(Cl)cc([C@H](OC)C3COC3)c(Cl)c2C1=O`, for which, in the assay on DU-145 prostate, the GI50 was above 100 µM and the TGI is above 100 µM.

Take `COc1ccccc1N1CCN(C(=O)c2ccc(NS(=O)(=O)c3cccc4cccnc34)cc2)CC1`: in the assay on DU-145 prostate, the GI50 was above 100 µM and the TGI was above 100 µM.

Molecule `Cc1[nH]c2ccccc2c1C1CC(=O)NC1=O` (centres undefined) yielded a TGI in the assay with DLD-1 colon above 100 µM.

On to `N#Cc1ccc(-c2nc3ccc(Cl)cc3[nH]2)cc1`, for which the TGI in the assay with MDA-N was above 100 µM.

Take `O=C1/C=C/[C@@H](O)[C@@H]2C[C@@H](O)C[C@H]2/C=C/CCC[C@H](CO)O1`: in the assay on DU-145 prostate, the GI50 was 7.75 µM and the TGI is above 100 µM.

On to `N#CC(C(=O)CCC(=O)Nc1ccc(Cl)cc1)c1ccccc1Cl` (centres undefined), for which the TGI in the assay on DLD-1 colon, in the assay on LXFL 529 NSCLC and in the assay on RXF-631 renal was above 100 µM in each case.

As to `O=c1ccccc(-c2ccc(-c3ccco3)cc2)c1O`, in the assay on DU-145 prostate, the GI50 is 0.967 µM and the TGI was above 100 µM.

Take `O=C(COc1ccc(Cl)cc1)N1N=C(c2ccc([N+](=O)[O-])o2)CC1(O)c1ccccc1` (centres undefined): the TGI in the assay on DLD-1 colon is above 100 µM; in the assay on RXF-631 renal, 24.9 µM.

As to `Cc1ccc(NC(=O)CC/C(CC(=O)c2ccc(Cl)cc2)=N\NC(=O)C(=O)NN)cc1C`, the TGI in the assay with DLD-1 colon, in the assay on HOP-18 NSCLC and in the assay on LXFL 529 NSCLC was above 100 µM in each case.

With `N#C/C(=C/C=C/c1ccccc1)S(=O)c1ccccc1` (centres undefined), in the assay with DU-145 prostate, the GI50 was 0.316 µM and the TGI worked out at 1.2 µM.

For the molecule `O=C1c2cccc3cc([N+](=O)[O-])cc(c23)C(=O)N1CCN1CCCC1`, in the assay with DU-145 prostate, the GI50 was 0.286 µM and the TGI was found to be 1.24 µM.

With `CC1OC(O[C@H]2/C=C/C=C/C=C/C=C/C=C/C=C/C=C/[C@H](C)[C@@H](O)[C@@H](C)[C@H](C)OC(=O)C[C@H](O)C[C@H](O)CC[C@@H](O)[C@H](O)C[C@H](O)C[C@]3(O)C[C@H](O)[C@@H](C(=O)O)[C@H](C2)O3)C(O)C(N)C1O` (some centres undefined), in the assay on DU-145 prostate, the GI50 was 12.7 µM and the TGI is 39.2 µM. The same molecule showed a concentration for total growth inhibition (TGI) with MDA-N of 24.4 µM.

Regarding `C[Si](C)(C)/C=C\CCCN1C(=O)CCC1=O`, the total growth inhibition concentration (TGI) in the assay on LXFL 529 NSCLC and in the assay on RXF-631 renal was above 100 µM throughout.

For `CC1=C(C(=O)NCC(C)O)CC(C(=O)NCC(C)O)=C(C)N1` (centres undefined), the TGI in the assay on DU-145 prostate and with MDA-N was above 100 µM each time.

For the molecule `CN(C)CCNC1=CC(=O)c2c(O)ccc(O)c2C1=O`, the TGI was found to be 26.7 µM with DU-145 prostate and 3.55 µM in the assay with MDA-N.

Turning to `CCC(O)(c1ccc(OC)cc1)C(c1ccc(OCc2ccccc2)cc1)c1ccc(OCc2ccccc2)cc1` (centres undefined), the TGI in the assay on DLD-1 colon, in the assay with LXFL 529 NSCLC and in the assay on RXF-631 renal was above 100 µM each time.

Turning to `C=CCCC(C)N(C(=O)OC(C)(C)C)S(=O)(=O)c1ccc(C)cc1` (centres undefined), the TGI with DLD-1 colon and in the assay on LXFL 529 NSCLC was above 100 µM throughout.

For the molecule `C=C1SC(=Nc2ccccc2Cl)N(C(=O)c2sc3ccccc3c2Cl)C1(C)C`, in the assay with DU-145 prostate, the GI50 was 11.3 µM and the TGI was above 100 µM.

As for `CCC(c1ccc(OC)cc1)C(CC)c1ccc(O)c(CN2CCCC2)c1` (centres undefined), in the assay on DU-145 prostate, the GI50 was 5.8 µM and the TGI was 19.1 µM.

`NNC(=O)CCC(=O)Nc1ccc(Cl)cc1Cl`: the TGI in the assay with DLD-1 colon, in the assay with LXFL 529 NSCLC and in the assay with RXF-631 renal was above 100 µM each time.

For `O=C(Nc1ccc(Cl)cc1)c1cc2cc(F)ccc2cc1O`, in the assay on DU-145 prostate, the GI50 was 2.18 µM and the TGI was above 100 µM.

These data come from PubChem BioAssay (NCI).
